PubChem BioAssay (NCI)
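These data come from cells grown in 96-well plates and exposed to compound for 48 hours at five concentrations. TGI is the concentration that stops growth completely.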

Legend:
Experiment in all cases: NCI anticancer screen, dose series, 48 h
TK-10 renal = system: TK-10 renal
COLO 205 colon = system: COLO 205 colon
HOP-62 NSCLC = system: HOP-62 NSCLC
SF-268 CNS = system: SF-268 CNS
DU-145 prostate = system: DU-145 prostate
NCI-H522 lung = system: NCI-H522 lung
NCI-H226 lung = system: NCI-H226 lung
SNB-19 CNS = system: SNB-19 CNS
MDA-N = system: MDA-N
OVCAR-4 ovarian = system: OVCAR-4 ovarian
OVCAR-5 ovarian = system: OVCAR-5 ovarian
SF-539 CNS = system: SF-539 CNS
UO-31 renal = system: UO-31 renal
OVCAR-3 ovarian = system: OVCAR-3 ovarian
A549 NSCLC = system: A549 NSCLC
HCT-15 colon = system: HCT-15 colon
RXF 393 renal = system: RXF 393 renal
786-0 renal = system: 786-0 renal
SR leukemia = system: SR leukemia
BT-549 breast = system: BT-549 breast
LOX IMVI melanoma = system: LOX IMVI melanoma
HOP-92 NSCLC = system: HOP-92 NSCLC
HCT-116 colon = system: HCT-116 colon
KM12 colon = system: KM12 colon
NCI/ADR-RES ovarian = system: NCI/ADR-RES ovarian
RPMI-8226 leukemia = system: RPMI-8226 leukemia
OVCAR-8 ovarian = system: OVCAR-8 ovarian
K-562 leukemia = system: K-562 leukemia
SW-620 colon = system: SW-620 colon
ACHN renal = system: ACHN renal
U251 CNS = system: U251 CNS
MCF7 breast = system: MCF7 breast
A498 renal = system: A498 renal
SN12C renal = system: SN12C renal
UACC-62 melanoma = system: UACC-62 melanoma
SK-MEL-5 melanoma = system: SK-MEL-5 melanoma
MDA-MB-435 = system: MDA-MB-435
NCI-H23 lung = system: NCI-H23 lung
MDA-MB-231 breast = system: MDA-MB-231 breast
EKVX NSCLC = system: EKVX NSCLC
IGROV1 ovarian = system: IGROV1 ovarian
M14 melanoma = system: M14 melanoma
NCI-H460 lung = system: NCI-H460 lung
HT29 colon = system: HT29 colon
CCRF-CEM leukemia = system: CCRF-CEM leukemia
SK-MEL-28 melanoma = system: SK-MEL-28 melanoma
PC-3 prostate = system: PC-3 prostate
SK-OV-3 ovarian = system: SK-OV-3 ovarian
SF-295 CNS = system: SF-295 CNS
HL-60(TB) leukemia = system: HL-60(TB) leukemia
T-47D breast = system: T-47D breast
CAKI-1 renal = system: CAKI-1 renal
UACC-257 melanoma = system: UACC-257 melanoma
MOLT-4 leukemia = system: MOLT-4 leukemia
SNB-75 CNS = system: SNB-75 CNS
HCC-2998 colon = system: HCC-2998 colon
HS 578T breast = system: HS 578T breast

Measured: TGI

O=C(O)CC1OCC=C2CN3CCC45c6ccccc6NC4C1C2CC35 (configuration not stated)
not listed: HCC-2998 colon | HS 578T breast
> 100 µM: all other assays above

CCOC(=O)C1(CO)CSCCSC1
not listed: HOP-62 NSCLC | OVCAR-4 ovarian | OVCAR-5 ovarian | SF-539 CNS | OVCAR-3 ovarian | 786-0 renal | BT-549 breast | RPMI-8226 leukemia | UACC-62 melanoma | EKVX NSCLC | IGROV1 ovarian | M14 melanoma | HL-60(TB) leukemia | T-47D breast | CAKI-1 renal
> 100 µM: all other assays above
